# Columns and labels:
# [1] = tested on: premature LH-surge; assay: Open-label uncontrolled clinical trial of premature LH-surge prevention in COH with IVF and embryo transfer; assay type: in vivo, human; conditions: for prevention of premature LH-rises (above levels of 10 IU/L): day 6 of recombinant FSH treatment until day of hCG treatment
# Method: An open-label, uncontrolled clinical trial is performed to investigate the efficacy, safety, and tolerability of premature LH-surge prevention in 30 female subjects undergoing COH and subsequent IVF and embryo transfer (ET), using a daily oral dosage of 40 mg mifepristone from day 6 of recombinant FSH treatment up to and including the day of hCG treatment and thrice daily intravaginal progesterone supplementation with 200 mg starting immediately after the hCG treatment for a period of up to 12 weeks. Although this treatment is suitable for all types of IVF patients (e.g. within the age range 18 to 45 years, with or without displaying polycystic ovarian syndrome and with or without a regular cycle), the following selection criteria are set forth in the investigation: healthy female partners of infertile couples; age at the time of screening between 20 and 39 years; a body mass index (BMI) between 19 and 29 kg/m^2; a regular menstrual cycle, and willing to give a written informed consent. Prior to the first administration of recombinant FSH a blood sample is taken for hormone analysis (estradiol and LH) and a standard urinary hCG assay is performed to exclude pregnancy. Recombinant FSH treatment is started at day 2 or 3 of menses onwards by a daily subcutaneous injection until the day of hCG administration. During the first 5 days of recombinant FSH treatment the dose is fixed at 150 IU. Starting at day 6, blood samples for hormone analysis are taken every two days prior to drug administration and ultrasonographic monitoring of follicle growth is performed to adjust, if necessary, the daily injectable dose of recombinant FSH. A subcutaneous injection with urinary hCG (5.000 IU) and an intramuscular injection of 50 mg progesterone are administered simultaneously, when at least three follicles exceed a diameter of 17 mm as measured by ultrasound scan and subsequently oocyte retrieval is performed 30-38 hours later. Using the procedure as set forth in example 1, with the proviso that, instead of using a daily dose of 40 mg mifepristone, mifepristone is used at a daily dose of 20 mg, a similar clinical outcome is obtained at a lower anti-P exposure level in the female subjects. […] Using the procedure as set forth in example 1, with the proviso that, instead of using a daily dose of 40 mg mifepristone, mifepristone is used at a daily dose of 10 mg, a similar clinical outcome is obtained at a lower anti-P exposure level in the female subjects.
# [2] = tested on: endometrium; assay: Controlled clinical study of endometrial receptivity in oocyte donors undergoing COH (glandular dating, pinopodes); assay type: in vivo, human; conditions: endometrial biopsy day 7 after hCG injection
# Method: An open-label, randomized and controlled clinical study is performed in oocyte donors undergoing COH and in whom premature LH-surges are prevented by either standard GnRH agonist treatment (5 oocyte donors) or mifepristone treatment (5 oocyte donors) with the objective to compare endometrial receptivity. In women treated with 40 mg orally administered mifepristone, the procedure as set forth in example 1 is used, with the proviso that instead of administering progesterone for 12 weeks, daily intravaginal progesterone supplementation with 400 mg is started immediately after the hCG treatment and continued until the day of endometrial biopsy (day 7 after hCG injection in donors). To oocyte donors in the reference group, undergoing COH and receiving GnRH agonist, treatment with GnRH agonist is started in the midluteal phase of the preceding menstrual cycle and given concomitantly with recombinant FSH from day 2 or 3 of the COH cycle up to and including the day of hCG treatment Vaginal progesterone supplementation is started in the GnRH-treated oocyte donors directly after oocyte retrieval (36-38 hours after hCG injection) and continued until the day of endometrial biopsy (day 7 after hCG injection). Endometrial samples are taken from all oocyte donors. […]
# [3] = tested on: folliculogenesis; conditions: 50 mg/day tablets from cycle day 2 until hCG injection, with recombinant FSH; cited from earlier work
# [4] = tested on: midcycle gonadotropin surge; conditions: cited from earlier work
# [5] = tested on: endogenous LH surge; assay: Clinical investigation: intramuscular progesterone instead of hCG to allow an endogenous LH surge in COH; assay type: in vivo, human
# Method: An open-label, uncontrolled clinical investigation is performed in 5 healthy female volunteers undergoing COH and subsequent IVF and ET, using the procedure as set forth in example 1, with the proviso that in stead of administering hCG a single intramuscular injection of 50 mg progesterone is administered to allow an endogenous LH surge to occur, inducing resumption of meiosis and luteinisation.
# [6] = tested on: uterine contractility; conditions: vaginal administration starting on the day of oocyte retrieval, compared with preovulatory values; cited from earlier work
SMILES,tolerability and adverse effects ([1]; 10 mg daily oral),prevention of premature LH-rises (above levels of 10 IU/L) ([1]; 10 mg daily oral),tolerability and adverse effects ([1]; 20 mg daily oral),prevention of premature LH-rises (above levels of 10 IU/L) ([1]; 20 mg daily oral),tolerability and adverse effects ([1]; 40 mg daily oral),prevention of premature LH-rises (above levels of 10 IU/L) ([1]; 40 mg daily oral),endometrial glandular dating ([2]; hematoxylin and eosin staining),presence of pinopodes ([2]; scanning electron microscopy),effect on follicular development [3],occurrence of LH-surges prior to hCG injection [3],"timing of the midcycle gonadotropin surge and collapse of the dominant follicle ([4]; 1 mg/day for 5 or 15 days, starting when dominant follicle reached 14-16 mm)",emergence of periovulatory progesterone rise ([4]; 1 mg/day for 5 or 15 days),oocyte quality at harvest ([5]; harvested at 36-3836 hours after starting progesterone treatment),"occurrence of endogenous LH-surges ([5]; single intramuscular injection of 50 mg, after 40 mg mifepristone COH procedure)","LH and FSH surges when added to RU486 ([4]; 5-10 mg/day, im, for 2 days, added to a 5-day course of RU486)",uterine contraction frequency on the day of embryo transfer [6]
CC#C[C@]1(O)CC[C@H]2[C@@H]3CCC4=CC(=O)CCC4=C3[C@@H](c3ccc(N(C)C)cc3)C[C@@]21C [mifepristone],well tolerated and shows no adverse effects,efficacious in preventing premature LH-rises,well tolerated and shows no adverse effects,efficacious in preventing premature LH-rises,well tolerated and shows no adverse effects,efficacious in preventing premature LH-rises,typically in-phase glandular dating is observed,pinopodes are readily visible,arrests follicular development by delaying the growth of the dominant follicle,may prevent the occurrence of LH-surges,consistently delayed,delayed the emergence of periovulatory progesterone rise,–,–,–,–
CC(=O)[C@H]1CC[C@H]2[C@@H]3CCC4=CC(=O)CC[C@]4(C)[C@H]3CC[C@]12C [progesterone],–,–,–,–,–,–,–,–,–,–,–,–,retrieval of good quality oocytes,efficacious in allowing endogenous LH-surges to occur,readily induced LH and FSH surges and completely reversed the effects of RU486 at midcycle,induced a decrease in uterine contraction frequency
